In paper PMC4138103 (PLoS ONE, 2014):

Test system: Sprague-Dawley rats
Test: Brain amino acid analyses
Assay type: in vivo, Rattus norvegicus
Design: key to Glutathione, trend over total doses: D: significant dose response (for results, see Table 2); T: significant trend
Procedure: The right hemisphere of cerebrum was rapidly weighed and homogenized in ice cold 7% HClO4 [35] using a glass/teflon Potter-Elvehjem homogenizer (Schwaben Prazision Nordlingen type L43). α-Amino adipic acid was used as internal standard. Samples were neutralized to pH 6.5–7.5 with ice cold KOH/HCl and centrifuged for 20 min at 20 000 g and 4°C in a Sorvall RMC-14-micro centrifuge. Pellets were frozen at −40°C for later protein determination by the BCA-assay. Supernatants were stored at −40°C, filtered with Nylon-66 micro filters (mesh 0.22 µm; Nalgene) prior to HPLC analysis.
Total amino acids in extracts were analyzed, using a reversed-phase HPLC (ChromSpher 5 C18 column; length 25 cm, inner diameter 4.6 mm; Varian) fitted with a fluorescence detector (Shimadzu, Kyoto, Japan), after derivatization with o-phthaldialdehyde (OPA; Sigma). […] Each sample was eluted for 45 min with a flow rate of 0.4 ml/min. A mixture of the amino acids of interest was run as external standards at 100 µM. L-Amino acid standards for aspartic acid, glutamic acid, serine, glutamine, glycine and alanine] were obtained from Pierce (Rockford, Ill., USA), whereas taurine, γ-amino butyric acid, glutathione and α-amino adipic acid standards were from Sigma-Aldrich. Chromatograms were analyzed using the software Lab Solutions (Shimadzu).

[1] = brain, females, total dose 10 mg/kg bw, n 1
[2] = brain, females, total dose 30 mg/kg bw
[3] = brain, females, total dose 300 mg/kg bw
[4] = brain, females, total dose 1000 mg/kg bw
[5] = brain, males, total dose 10 mg/kg bw
[6] = brain, males, total dose 30 mg/kg bw
[7] = brain, males, total dose 300 mg/kg bw
[8] = brain, males, total dose 1000 mg/kg bw

With Clc1cc(Cl)c(-c2cc(Cl)c(Cl)c(Cl)c2Cl)cc1Cl [PCB 180, 2,2′,3′,4,4′,5,5′-heptachlorobiphenyl] the “Amino acid concentration in cerebrum vs controls” value (both genders, 10, 30, 300 or 1000 mg/kg bw) was “did not show significant differences”, the Alanine [1] was 14.25 nmol/mg protein and the Aspartate [1] was 71.05 nmol/mg protein. The Glutamate [1] was 124 nmol/mg protein, the Glutamine [1] was 85.95 nmol/mg protein and the Glutathione [1] was 16.96 nmol/mg protein. It also gave a Glycine [1] of 43.99 nmol/mg protein, a Serine [1] of 17.81 nmol/mg protein and a Taurine [1] of 113.1 nmol/mg protein. For the same compound, the γ-Amino butyric acid [1] was 42.71 nmol/mg protein, the Alanine [2] was 12.67 nmol/mg protein and the Aspartate [2] was 60.52 nmol/mg protein. The Glutamate [2] was 110 nmol/mg protein, the Glutamine [2] was 82.24 nmol/mg protein and the Glutathione [2] was 12.19 nmol/mg protein. It also gave a Glycine [2] of 43.93 nmol/mg protein, a Serine [2] of 17.02 nmol/mg protein and a Taurine [2] of 98.12 nmol/mg protein. The γ-Amino butyric acid [2] was 40.16 nmol/mg protein, the Alanine [3] was 13.51 nmol/mg protein and the Aspartate [3] was 61.77 nmol/mg protein. It also gave a Glutamate [3] of 111 nmol/mg protein, a Glutamine [3] of 87.85 nmol/mg protein and a Glutathione [3] of 11.70 nmol/mg protein. The Glycine [3] was 48.50 nmol/mg protein, the Serine [3] was 17.18 nmol/mg protein and the Taurine [3] was 95.21 nmol/mg protein. It also gave a γ-Amino butyric acid [3] of 41.47 nmol/mg protein, an Alanine [4] of 13.04 nmol/mg protein and an Aspartate [4] of 59.40 nmol/mg protein. The Glutamate [4] was 109 nmol/mg protein, the Glutamine [4] was 79.65 nmol/mg protein and the Glutathione [4] was 10.79 nmol/mg protein. The Glycine [4] was 43.12 nmol/mg protein, the Serine [4] was 16.71 nmol/mg protein and the Taurine [4] was 97.62 nmol/mg protein. The γ-Amino butyric acid [4] was 40.90 nmol/mg protein, the Alanine [5] was 11.68 nmol/mg protein and the Aspartate [5] was 59.00 nmol/mg protein. The Glutamate [5] was 110 nmol/mg protein, the Glutamine [5] was 81.50 nmol/mg protein and the Glutathione [5] was 12.48 nmol/mg protein. It also gave a Glycine [5] of 38.78 nmol/mg protein, a Serine [5] of 17.39 nmol/mg protein and a Taurine [5] of 93.04 nmol/mg protein. The γ-Amino butyric acid [5] was 36.29 nmol/mg protein, the Alanine [6] was 12.16 nmol/mg protein and the Aspartate [6] was 60.01 nmol/mg protein. It also gave a Glutamate [6] of 106 nmol/mg protein, a Glutamine [6] of 68.58 nmol/mg protein and a Glutathione [6] of 11.48 nmol/mg protein. It also gave a Glycine [6] of 38.07 nmol/mg protein, a Serine [6] of 16.11 nmol/mg protein and a Taurine [6] of 93.22 nmol/mg protein. For the same compound, the γ-Amino butyric acid [6] was 36.82 nmol/mg protein, the Alanine [7] was 13.02 nmol/mg protein and the Aspartate [7] was 58.39 nmol/mg protein. For the same compound, the Glutamate [7] was 111 nmol/mg protein, the Glutamine [7] was 76.57 nmol/mg protein and the Glutathione [7] was 10.37 nmol/mg protein. It also gave a Glycine [7] of 39.90 nmol/mg protein, a Serine [7] of 17.20 nmol/mg protein and a Taurine [7] of 95.86 nmol/mg protein. It also gave a γ-Amino butyric acid [7] of 36.14 nmol/mg protein, an Alanine [8] of 12.29 nmol/mg protein and an Aspartate [8] of 54.56 nmol/mg protein. For the same compound, the Glutamate [8] was 103 nmol/mg protein, the Glutamine [8] was 72.52 nmol/mg protein and the Glutathione [8] was 9.97 nmol/mg protein. It also gave a Glycine [8] of 40.40 nmol/mg protein, a Serine [8] of 16.45 nmol/mg protein and a Taurine [8] of 88.63 nmol/mg protein. The γ-Amino butyric acid [8] was 35.69 nmol/mg protein, the “Glutathione, trend over total doses” value (brain, males, total doses 0-1000 mg/kg bw) was “T” and the “Cerebrum glutathione concentration, max. decrease” value (males, at 1000 mg/kg) was 18%.
